Source: PMC8119466, “A screen of FDA-approved drugs identifies inhibitors of protein tyrosine phosphatase 4A3 (PTP4A3 or PRL-3)” (Scientific Reports, 2021)
Where a name gives a salt, the structure may show the parent alone. Read-outs that look alike come from different tables or passages of the source.

How the values were obtained:
Assay type in all cases: biochemical
[1] = target: T1, recombinant PRL-1 (Homo sapiens, UniProt Q93096); assay: In vitro phosphatase assay (DiFMUP hydrolysis), PRL-1
T1 construct: 6xHis (N, cleaved yes); made in house; host or cells: E. coli One Shot BL21 Star
T1 sequence (Q93096 1-173): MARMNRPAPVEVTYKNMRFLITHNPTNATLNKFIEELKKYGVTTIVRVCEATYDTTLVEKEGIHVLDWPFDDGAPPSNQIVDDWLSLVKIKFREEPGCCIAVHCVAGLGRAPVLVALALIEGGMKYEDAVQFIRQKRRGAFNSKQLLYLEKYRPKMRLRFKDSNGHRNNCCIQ

[2] = target: T2, recombinant PRL-2 (Homo sapiens, UniProt Q12974); assay: In vitro phosphatase assay (DiFMUP hydrolysis), PRL-2;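 further: PRL-2 activity read as DiFMUP hydrolysis after 20 min at room temperature with drug, enzyme first pre-reduced at 4 °C for 20 min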
T2 construct: 6xHis (N, cleaved yes); made in house; host or cells: E. coli One Shot BL21 Star
T2 sequence (Q12974 1-167): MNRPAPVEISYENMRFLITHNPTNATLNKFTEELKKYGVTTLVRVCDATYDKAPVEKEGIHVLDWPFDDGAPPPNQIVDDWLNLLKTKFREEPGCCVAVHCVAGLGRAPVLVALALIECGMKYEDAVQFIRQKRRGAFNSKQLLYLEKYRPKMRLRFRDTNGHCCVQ

[3] = target: T3, recombinant PRL-3 (Homo sapiens, UniProt O75365); assay: In vitro phosphatase assay (DiFMUP hydrolysis), PRL-3
T3 construct: 6xHis (N, cleaved yes); made in house; host or cells: E. coli One Shot BL21 Star
T3 sequence (O75365 whole entry): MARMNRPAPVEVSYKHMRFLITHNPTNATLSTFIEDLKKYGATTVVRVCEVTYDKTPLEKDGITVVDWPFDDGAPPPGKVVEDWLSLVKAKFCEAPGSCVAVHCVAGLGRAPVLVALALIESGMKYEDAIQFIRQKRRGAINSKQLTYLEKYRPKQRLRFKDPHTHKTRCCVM

[4] = FDA-approved drug screen, compared to DMSO

SMILES | % Phosphatase Activity (compared to DMSO) PRL-1 [1, 4] [%] | % Phosphatase Activity (compared to DMSO) PRL-2 [2, 4] [%] | % Phosphatase Activity (compared to DMSO) PRL-3 [3, 4] [%] | other results
CCCCCCCCCCCC1=C(O)C(=O)C=C(O)C1=O [Embelin, reference compound] | 40 | 58 | 28 | IC50 ([1]; 2.5 µM protein, DiFMUP at KM, read-out: Calculated IC50, PRL-1 phosphatase activity): 114 ± 16 µM; IC50 ([2]; 2.5 µM protein, DiFMUP at KM, read-out: Calculated IC50, PRL-2 phosphatase activity): 124 ± 60 µM; IC50 ([3]; 2.5 µM protein, DiFMUP at KM, read-out: Calculated IC50, PRL-3 phosphatase activity): 52 ± 9 µM
OC[C@H]1O[C@@H](c2ccc(Cl)c(Cc3ccc(O[C@H]4CCOC4)cc3)c2)[C@H](O)[C@@H](O)[C@@H]1O [Empagliflozin (BI 10773)] | 109 | 93 | 97 | –
C[C@H](NC(=O)C(=O)Nc1ccccc1C(C)(C)C)C(=O)N[C@@H](CC(=O)O)C(=O)COc1c(F)c(F)cc(F)c1F [Emricasan] | 95 | 72 | 95 | –
Nc1nc(=O)n([C@@H]2CS[C@H](CO)O2)cc1F [Emtricitabine] | – | – | – | % Phosphatase Activity (compared to DMSO) PRL-1 [1]: 104%; % Phosphatase Activity (compared to DMSO) PRL-2 [2]: 97%; % Phosphatase Activity (compared to DMSO) PRL-3 [3]: 75%
CCOC(=O)[C@H](CCc1ccccc1)N[C@@H](C)C(=O)N1CCC[C@H]1C(=O)O [Enalapril Maleate] | 83 | 92 | 93 | –
C[C@H](N[C@@H](CCc1ccccc1)C(=O)O)C(=O)N1CCC[C@H]1C(=O)O.O.O [Enalaprilat Dihydrate] | 102 | 102 | 78 | –
CCN1CCN(c2cc3c(cc2F)c(=O)c(C(=O)O)cn3C2CC2)CC1 [Enrofloxacin] | 152 | 176 | 118 | –
CCN(CC)C(=O)/C(C#N)=C/c1cc(O)c(O)c([N+](=O)[O-])c1 [Entacapone] | 94 | 87 | 75 | –
C=C1[C@H](CO)[C@@H](O)C[C@@H]1n1cnc2c(=O)[nH]c(N)nc21 [Entecavir Hydrate] | 102 | 92 | 71 | –
Nc1ccccc1NC(=O)c1ccc(CNC(=O)OCc2cccnc2)cc1 [Entinostat (MS-275)] | 91 | 91 | 80 | –
CN1CCN(c2ccc(C(=O)Nc3n[nH]c4ccc(Cc5cc(F)cc(F)c5)cc34)c(NC3CCOCC3)c2)CC1 [Entrectinib (RXDX-101)] | 344 | 282 | 180 | –
CNC(=O)c1ccc(N2C(=S)N(c3ccc(C#N)c(C(F)(F)F)c3)C(=O)C2(C)C)cc1F [Enzalutamide (MDV3100)] | 90 | 89 | 71 | –
Cn1cc(C2=C(c3cn(C4CCN(Cc5ccccn5)CC4)c4ccccc34)C(=O)NC2=O)c2ccccc21 [Enzastaurin (LY317615)] | 82 | 76 | 82 | –
NS(=O)(=O)NCCNc1nonc1/C(=N/O)Nc1ccc(F)c(Br)c1 [Epacadostat (INCB024360)] | 111 | 98 | 95 | –
CC(/C=C1\SC(=S)N(CC(=O)O)C1=O)=C\c1ccccc1 [Epalrestat] | 40 | 17 | 74 | –
NC1=NCC2c3ccccc3Cc3ccccc3N12 (stereo not drawn) [Epinastine HCl] | – | – | – | % Phosphatase Activity (compared to DMSO) PRL-1 [1]: 96%; % Phosphatase Activity (compared to DMSO) PRL-2 [2]: 109%; % Phosphatase Activity (compared to DMSO) PRL-3 [3]: 80%
CNC[C@H](O)c1ccc(O)c(O)c1 [Epinephrine Bitartrate] | – | – | – | % Phosphatase Activity (compared to DMSO) PRL-1 [1]: 116%; % Phosphatase Activity (compared to DMSO) PRL-2 [2]: 90%; % Phosphatase Activity (compared to DMSO) PRL-3 [3]: 82%
CNC[C@H](O)c1ccc(O)c(O)c1 [Epinephrine HCl] | – | – | – | % Phosphatase Activity (compared to DMSO) PRL-1 [1]: 98%; % Phosphatase Activity (compared to DMSO) PRL-2 [2]: 132%; % Phosphatase Activity (compared to DMSO) PRL-3 [3]: 90%
COc1cccc2c1C(=O)c1c(O)c3c(c(O)c1C2=O)C[C@@](O)(C(=O)CO)C[C@@H]3O[C@H]1C[C@H](N)[C@@H](O)[C@H](C)O1 [Epirubicin HCl] | 78 | 90 | 58 | –
COC(=O)[C@@H]1CC2=CC(=O)CC[C@]2(C)[C@@]23O[C@@H]2C[C@@]2(C)[C@@H](CC[C@@]24CCC(=O)O4)[C@H]13 [Eplerenone] | 105 | 112 | 81 | –
C/C(=C\c1csc(C)n1)[C@@H]1C[C@@H]2O[C@]2(C)CCC[C@H](C)[C@H](O)[C@@H](C)C(=O)C(C)(C)[C@@H](O)CC(=O)O1 [Epothilone B (EPO906, Patupilone)] | 98 | 93 | 80 | –
CCCCc1ncc(/C=C(\Cc2cccs2)C(=O)O)n1Cc1ccc(C(=O)O)cc1 [Eprosartan Mesylate] | 89 | 100 | 72 | –
O=C(O)CSCC(=O)NC1CCSC1=O (stereo not drawn) [Erdosteine] | 93 | 89 | 95 | –
C#Cc1cccc(Nc2ncnc3cc(OCCOC)c(OCCOC)cc23)c1.Cl [Erlotinib HCl (OSI-744)] | 110 | 128 | 87 | –
C#Cc1cccc(Nc2ncnc3cc(OCCOC)c(OCCOC)cc23)c1 [Erlotinib] | 113 | 110 | 123 | –
CCOC(=O)CCC(=O)O[C@H]1[C@H](O[C@@H]2[C@@H](C)[C@H](O[C@H]3C[C@@](C)(OC)[C@@H](O)[C@H](C)O3)[C@@H](C)C(=O)O[C@H](CC)[C@@](C)(O)[C@H](O)[C@@H](C)C(=O)[C@H](C)C[C@@]2(C)O)O[C@H](C)C[C@@H]1N(C)C [Erythromycin Ethylsuccinate] | 85 | 82 | 71 | –
CC[C@H]1OC(=O)[C@H](C)[C@@H](O[C@H]2C[C@@](C)(OC)[C@@H](O)[C@H](C)O2)[C@H](C)[C@@H](O[C@@H]2O[C@H](C)C[C@H](N(C)C)[C@H]2O)[C@](C)(O)C[C@@H](C)C(=O)[C@H](C)[C@@H](O)[C@]1(C)O [Erythromycin] | 91 | 93 | 79 | –
CN(C)CCC[C@@]1(c2ccc(F)cc2)OCc2cc(C#N)ccc21 [Escitalopram Oxalate] | 89 | 117 | 67 | –
